Laboratory results reported in article PMC11170107, “Development of a new hazard scoring system in primary neuronal cell cultures for drug-induced acute neuronal toxicity identification in early drug discovery” (Frontiers in Pharmacology, 2024).

How the values were obtained:
[1] = cited from earlier work; for Free Cmax highest: Supplementary Table S1
[2] = WHO adverse drug reactions VigiBase; ref Kumlien and Lundberg, 2010; cited from earlier work
[3] = ref National library of medicine, Daylimed; cited from earlier work
[4] = seizure ADR frequency in SIDER; ref Campillos et al., 2008; Kuhn et al., 2010; cited from earlier work
[5] = test system: rat primary cortical neurons; assay: MEA hazard scoring in rat primary cortical neuronal cultures; conditions: statistical tolerance interval of the ΔΔ% effect; One-sided interval

Structure (SMILES) | Free Cmax highest [1] | Percentage seizures of total number of ADRs [2] | FDA prescription information at therapeutic dose (Convulsion/ Seizure/Lower the seizure threshold/withdrawal) [3] | SIDER ADR on-/off-label [4] | further results
CC(=O)Nc1ccc(O)cc1 [Acetaminophen] | 540 nM | 0.4389% | not found on label | – | –
NC12CC3CC(CC(C3)C1)C2 [Amantadine] | 2840 nM | – | – | – | –
CCN(CC)C(C)C(=O)c1ccccc1 (stereo not shown) [Amfepramone] | 90 nM | – | – | – | –
Clc1ccc2c(c1)C(N1CCNCC1)=Nc1ccccc1O2 [Amoxapine] | 10 nM | 4.864% | on label | no frequency information | –
CC1(C)S[C@@H]2[C@H](NC(=O)[C@H](N)c3ccc(O)cc3)C(=O)N2[C@H]1C(=O)O [Amoxicillin] | 25830 nM | 0.1648% | on label | very rare, postmarketing | –
CC(N)Cc1ccccc1 (stereo not shown) [Amphetamine] | – | 1.043% | – | – | –
CN1CCc2cccc3c2[C@H]1Cc1ccc(O)c(O)c1-3 [Apomorphine] | 0.4 nM | 0.382% | not found on label | not found on label | –
O=C1CCc2ccc(OCCCCN3CCN(c4cccc(Cl)c4Cl)CC3)cc2N1 [Aripiprazole] | 11 nM | 1.175% | on label | Postmarketing | –
Cn1c(=O)c2c(ncn2C)n(C)c1=O [Caffeine] | 23300 nM | – | – | – | Area.Under.Cross.Correlation Lower.TI [5]: 6.336; Area.Under.Cross.Correlation Upper.TI [5]: 111.5; Burst.Duration...Avg.(s. Lower.TI) [5]: -5.73; Burst.Duration...Avg.(s. Upper.TI) [5]: 16.22; Mean.Firing.Rate..Hz. Lower.TI [5]: 8.914; Mean.Firing.Rate..Hz. Upper.TI [5]: 94.17; Median.Mean.ISI Lower.TI [5]: -1.251; Median.Mean.ISI Upper.TI [5]: 10.27
NC(=O)N1c2ccccc2C=Cc2ccccc21 [Carbamazepine] | 12100 nM | 5.289% | not found on label | common | –
C[C@@](Cc1ccc(O)c(O)c1)(NN)C(=O)O [Carbidopa] | 550 nM | 0.8032% | on label | no frequency information | –
CN(C)CCCN1c2ccccc2Sc2ccc(Cl)cc21 [Chlorpromazine] | 54 nM | 1.468% | On label | – | –
CN(C)CCCN1c2ccccc2CCc2ccc(Cl)cc21 [Clomipramine] | 9 nM | – | – | – | –
CN1CCN(C2=Nc3cc(Cl)ccc3Nc3ccccc32)CC1 [Clozapine] | 70 nM | – | – | – | –
COc1ccc2c3c1O[C@H]1[C@@H](O)C=C[C@H]4[C@@H](C2)N(C)CC[C@@]341 [Codeine] | 880 nM | – | – | – | –
CN1CCN(C(c2ccccc2)c2ccccc2)CC1 [Cyclizine] | 105 nM | 1.797% | – | no frequency information | –
C[C@@H]1C[C@H]2[C@@H]3CCC4=CC(=O)C=C[C@]4(C)[C@@]3(F)[C@@H](O)C[C@]2(C)[C@@]1(O)C(=O)CO [Dexamethasone] | 25 nM | 0.5218% | On label | no frequency information | –
C[C@]12N[C@H](Cc3ccccc31)c1ccccc12 [Dizocilpine (MK-801), Dizocilpine] | – | – | – | – | Area.Under.Cross.Correlation Lower.TI [5]: -94.33; Area.Under.Cross.Correlation Upper.TI [5]: -47.25; Burst.Duration...Avg.(s. Lower.TI) [5]: -41.38; Burst.Duration...Avg.(s. Upper.TI) [5]: 248.8; Mean.Firing.Rate..Hz. Lower.TI [5]: -92.35; Mean.Firing.Rate..Hz. Upper.TI [5]: -66.07; Median.Mean.ISI Lower.TI [5]: -38.05; Median.Mean.ISI Upper.TI [5]: 23.07
COc1cccc2c1C(=O)c1c(O)c3c(c(O)c1C2=O)C[C@@](O)(C(=O)CO)C[C@@H]3O[C@H]1C[C@H](N)[C@H](O)[C@H](C)O1 [Doxorubicin] | 3990 nM | 0.3099% | On label | postmarketing, uncommon | –
COc1ccc(Cl)cc1[C@]1(F)C(=O)Nc2cc(C(F)(F)F)ccc21 [Flindokalner] | 340 nM | – | – | – | –
CN(C)CCCN1c2ccccc2CCc2ccccc21 [Imipramine] | 53 nM | 1.538% | On label | – | –
NNC(=O)c1ccncc1 [Isoniazid] | 57000 nM | 0.676% | on label | no frequency information | –

Structure (SMILES) | Free Cmax highest [1] | Percentage seizures of total number of ADRs [2] | FDA prescription information at therapeutic dose (Convulsion/ Seizure/Lower the seizure threshold/withdrawal) [3] | SIDER ADR on-/off-label [4] | further results
CC[C@@H](C(N)=O)N1CCCC1=O [Levetiracetam] | 276350 nM | 15.5539% | On label | 2.38% - 6% | –
Cc1ccc(F)c(NC(=O)Nc2ccc(-c3cccc4[nH]nc(N)c34)cc2)c1 [Linifanib] | – | 0% | – | – | –
O=C1N(c2ccccc2)c2ccccc2C1(Cc1ccncc1)Cc1ccncc1 [Linopirdine] | 3000 nM | – | – | – | –
CNCCCC12CCC(c3ccccc31)c1ccccc12 [Maprotiline] | 73.3 nM | 7.924% | – | no frequency information | –
CC1CCN(CCCC(=O)c2ccc(F)cc2)CC1 [Melperone] | 240 nM | – | – | – | –
CC(=O)/N=c1/sc(S(N)(=O)=O)nn1C [Methazolamide] | 20400 nM | 0% | On label | no frequency information | –
COC(=O)C(c1ccccc1)C1CCCCN1 (stereo not shown) [Methylphenidate] | 165 nM | – | On label | postmarketing | –
COc1c(N2C[C@@H]3CCCN[C@@H]3C2)c(F)cc2c(=O)c(C(=O)O)cn(C3CC3)c12 [Moxifloxacin] | 8134 nM | – | – | – | –
Cc1nccn1CC1CCc2c(c3ccccc3n2C)C1=O (stereo not shown) [Ondansetron] | 51.3 nM | 1.344% | on label | uncommon | –
Cc1ccccc1C(OCCN(C)C)c1ccccc1 (stereo not shown) [Orphenadrine] | 10 nM | 0.6083% | not found on label | not found on label | –
CC[C@@H]1C(=O)OC[C@@H]1Cc1cncn1C [Pilocarpine] | 375 nM | 0.1965% | not found on label | not found on label | –
CC(CN1c2ccccc2Sc2ccccc21)N(C)C (stereo not shown) [Promethazine] | 72 nM | 1.639% | on label | no frequency information | –
CC(C)NCC(O)COc1cccc2ccccc12 (stereo not shown) [Propranolol] | 120 nM | – | – | – | –
Cc1ncc(CO)c(CO)c1O [Pyridoxine] | 280 nM | 0.4851% | not found on label | not found on label | –
CC(C)(C)NCC(O)c1ccc(O)c(CO)c1 (stereo not shown) [Salbutamol] | 56 nM | 0.3555% | – | – | –
OC[C@@H](O)[C@@H](O)[C@H](O)[C@@H](O)CO [Sorbitol] | – | 0.6135% | not found on label | no frequency information | –
CC(C)(C)C(O)/C=C/c1ccc2c(c1)OCO2 (stereo not shown) [Stiripentol] | 670 nM | – | – | – | –
Cn1c(=O)c2[nH]cnc2n(C)c1=O [Theophylline] | 26580 nM | 4.2336% | – | – | –
NC[C@H]1CC[C@H](C(=O)O)CC1 [Tranexamic Acid] | 101250 nM | 1.5% | On label | postmarketing | free Cmax concentration in man [1]: > 100000 nM
C[C@@H]([C@@H](O)c1ccc(O)cc1)N1CCC(O)(c2ccccc2)CC1 [Traxoprodil (CP-101606), Traxoprodil] | 94 nM | – | – | – | –
OC(CCN1CCCCC1)(c1ccccc1)C1CCCCC1 (stereo not shown) [Trihexyphenidyl] | 24 nM | 0.7979% | not found on label | not found on label | –
CCCC(CCC)C(=O)O [Valproic acid] | 92000 nM | 4.854% | on label | not found on label | –
